Consider 32 compounds from patent US20140243334A1, “SUBSTITUTED HYDOXAMIC ACIDS AND USES THEREOF” (Millennium Pharmaceuticals, Inc., priority 2010, published 2014).

SMILES strings stand for the structures.

In the assay the target is T1, purified human HDAC6 (Homo sapiens, UniProt Q9UBN7).
T1 construct: purchased BPS Bioscience 5006
T1 sequence (Q9UBN7 1-1215): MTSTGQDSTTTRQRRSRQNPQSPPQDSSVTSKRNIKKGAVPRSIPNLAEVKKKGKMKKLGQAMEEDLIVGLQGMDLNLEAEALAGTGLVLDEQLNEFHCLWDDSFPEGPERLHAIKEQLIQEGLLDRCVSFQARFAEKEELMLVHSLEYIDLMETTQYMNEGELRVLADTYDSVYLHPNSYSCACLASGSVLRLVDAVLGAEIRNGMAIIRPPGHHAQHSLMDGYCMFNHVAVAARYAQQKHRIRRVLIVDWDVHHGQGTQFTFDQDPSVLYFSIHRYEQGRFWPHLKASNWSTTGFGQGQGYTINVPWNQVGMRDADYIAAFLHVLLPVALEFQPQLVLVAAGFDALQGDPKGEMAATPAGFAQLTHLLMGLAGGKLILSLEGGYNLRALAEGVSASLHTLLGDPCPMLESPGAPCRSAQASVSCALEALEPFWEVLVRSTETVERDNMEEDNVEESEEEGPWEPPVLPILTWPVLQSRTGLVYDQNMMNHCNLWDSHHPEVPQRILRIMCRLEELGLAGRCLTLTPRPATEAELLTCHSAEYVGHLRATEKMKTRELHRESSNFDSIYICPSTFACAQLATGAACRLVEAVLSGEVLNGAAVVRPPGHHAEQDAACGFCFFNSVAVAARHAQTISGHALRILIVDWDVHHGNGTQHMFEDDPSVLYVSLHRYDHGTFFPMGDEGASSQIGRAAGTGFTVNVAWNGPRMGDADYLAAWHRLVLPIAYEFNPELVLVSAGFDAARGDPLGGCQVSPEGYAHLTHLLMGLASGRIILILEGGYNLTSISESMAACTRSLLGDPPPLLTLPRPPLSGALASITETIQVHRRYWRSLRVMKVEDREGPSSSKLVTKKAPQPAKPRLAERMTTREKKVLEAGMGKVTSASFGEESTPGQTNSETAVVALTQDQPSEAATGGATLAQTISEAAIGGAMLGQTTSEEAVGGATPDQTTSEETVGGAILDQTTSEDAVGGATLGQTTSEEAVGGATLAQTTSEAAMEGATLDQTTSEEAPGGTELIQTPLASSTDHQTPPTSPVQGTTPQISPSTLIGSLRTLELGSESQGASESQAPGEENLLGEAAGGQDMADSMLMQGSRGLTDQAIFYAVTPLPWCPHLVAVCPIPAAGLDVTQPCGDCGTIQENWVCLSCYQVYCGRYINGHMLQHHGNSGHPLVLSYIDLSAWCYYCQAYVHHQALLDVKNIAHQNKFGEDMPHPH
Kind of assay: HDAC6 Enzyme Assay. The class given is biochemical. Particulars: HDAC6 inhibition at a compound concentration of 0.412 μM; read-out: Percent Inhibition at 0.412 μM.
Regarding `CC(C)Oc1ccc(-c2ccc3c(c2)CC(C(=O)NO)CC3)cc1` (centres unmarked) [Compound I-89, N-hydroxy-7-(4-isopropoxyphenyl)-1,2,3,4-tetrahydronaphthalene-2-carboxamide], the inhibition (commonly the percentage by which the read-out fell short of the control) at 0.412 µM was determined as 66%.

Consider `O=C(NO)C1CCc2ccc(-c3ccc4c(c3)CCO4)cc2C1` (centres unmarked) [Compound I-90, 7-(2,3-dihydro-1-benzofuran-5-yl)-N-hydroxy-1,2,3,4-tetrahydronaphthalene-2-carboxamide], for which the inhibition at 0.412 µM stood at 85%.

For `O=C(NO)C1CCc2ccc(-c3ccc4nonc4c3)cc2C1` (centres unmarked) [Compound I-91, 7-(2,1,3-benzoxadiazol-5-yl)-N-hydroxy-1,2,3,4-tetrahydronaphthalene-2-carboxamide], the inhibition at 0.412 µM is 77%. For `CN(C)c1ccc(-c2ccc3c(c2)CC(C(=O)NO)CC3)cc1` (centres unmarked) [Compound I-92, 7-[4-(dimethylamino)phenyl]-N-hydroxy-1,2,3,4-tetrahydronaphthalene-2-carboxamide], the inhibition at 0.412 µM came out at 67%. Regarding `CN(C)S(=O)(=O)c1cccc(-c2ccc3c(c2)CC(C(=O)NO)CC3)c1` (centres unmarked) [Compound I-93, 7-{3-[(dimethylamino)sulfonyl]phenyl}-N-hydroxy-1,2,3,4-tetrahydronaphthalene-2-carboxamide], the inhibition at 0.412 µM was 79%.

`CCCc1ccc(-c2ccc3c(c2)CC(C(=O)NO)CC3)cc1` (centres unmarked) [Compound I-94, N-hydroxy-7-(4-propylphenyl)-1,2,3,4-tetrahydronaphthalene-2-carboxamide]: the inhibition at 0.412 µM was determined as 62%.

Consider `COc1ccc(-c2ccc3c(c2)CC(C(=O)NO)CC3)c(C)c1` (centres unmarked) [Compound I-95, N-hydroxy-7-(4-methoxy-2-methylphenyl)-1,2,3,4-tetrahydronaphthalene-2-carboxamide], for which the inhibition at 0.412 µM was determined as 78%.

`O=C(NO)C1CCc2ccc(-c3csc4ccccc34)cc2C1` (centres unmarked) [Compound I-96, 7-(1-benzothien-3-yl)-N-hydroxy-1,2,3,4-tetrahydronaphthalene-2-carboxamide]: the inhibition at 0.412 µM was 79%. Regarding `O=C(NO)C1CCc2ccc(-c3ccc(N4CCCC4)nc3)cc2C1` (centres unmarked) [Compound I-97, N-hydroxy-7-(6-pyrrolidin-1-ylpyridin-3-yl)-1,2,3,4-tetrahydronaphthalene-2-carboxamide], the inhibition at 0.412 µM was 81%. As for `Cc1ccc(-c2ccc3c(c2)CC(C(=O)NO)CC3)c2ccccc12` (centres unmarked) [Compound I-98, N-hydroxy-4-methyl-5′,6′,7′,8′-tetrahydro-1,2′-binaphthalene-7′-carboxamide], the inhibition at 0.412 µM is 78%. As to `O=C(NO)C1CCc2ccc(-c3ccc(N4CCOCC4)nc3)cc2C1` (centres unmarked) [Compound I-99, N-hydroxy-7-(6-morpholin-4-ylpyridin-3-yl)-1,2,3,4-tetrahydronaphthalene-2-carboxamide], the inhibition at 0.412 µM is 82%. In the case of `CNC(=O)c1cc(F)cc(-c2ccc3c(c2)CC(C(=O)NO)CC3)c1` (centres unmarked) [Compound I-100, 7-{3-fluoro-5-[(methylamino)carbonyl]phenyl}-N-hydroxy-1,2,3,4-tetrahydronaphthalene-2-carboxamide], the inhibition at 0.412 µM was 84%.

For `COc1ccc(-c2ccc3c(c2)CC(C(=O)NO)CC3)cc1F` (centres unmarked) [Compound I-101, 7-(3-fluoro-4-methoxyphenyl)-N-hydroxy-1,2,3,4-tetrahydronaphthalene-2-carboxamide], the inhibition at 0.412 µM stood at 82%. In the case of `Cc1cc(F)ccc1-c1ccc2c(c1)CC(C(=O)NO)CC2` (centres unmarked) [Compound I-102, 7-(4-fluoro-2-methylphenyl)-N-hydroxy-1,2,3,4-tetrahydronaphthalene-2-carboxamide] it was 76%; in that of `O=C(NO)C1CCc2ccc(-c3ccoc3)cc2C1` (centres unmarked) [Compound I-103, 7-(3-furyl)-N-hydroxy-1,2,3,4-tetrahydronaphthalene-2-carboxamide], 72%. Consider `O=C(NO)C1CCc2ccc(-c3ccc([N+](=O)[O-])cc3)cc2C1` (centres unmarked) [Compound I-104, N-hydroxy-7-(4-nitrophenyl)-1,2,3,4-tetrahydronaphthalene-2-carboxamide], for which the inhibition at 0.412 µM was 78%. As to `N#Cc1cc(-c2ccc3c(c2)CC(C(=O)NO)CC3)ccc1F` (centres unmarked) [Compound I-105, 7-(3-cyano-4-fluorophenyl)-N-hydroxy-1,2,3,4-tetrahydronaphthalene-2-carboxamide], the inhibition at 0.412 µM stood at 61%.

For the compound `O=C(NO)C1CCc2ccc(-c3cccc([N+](=O)[O-])c3)cc2C1` (centres unmarked) [Compound I-106, N-hydroxy-7-(3-nitrophenyl)-1,2,3,4-tetrahydronaphthalene-2-carboxamide], the inhibition at 0.412 µM was 83%. On to `CCOc1cccc(-c2ccc3c(c2)CC(C(=O)NO)CC3)c1` (centres unmarked) [Compound I-107, 7-(3-ethoxyphenyl)-N-hydroxy-1,2,3,4-tetrahydronaphthalene-2-carboxamide], for which the inhibition at 0.412 µM came out at 86%. Take `CN(C)C(=O)c1ccc(-c2ccc3c(c2)CC(C(=O)NO)CC3)cc1F` (centres unmarked) [Compound I-108, 7-{4-[(dimethylamino)carbonyl]-3-fluorophenyl}-N-hydroxy-1,2,3,4-tetrahydronaphthalene-2-carboxamide]: the inhibition at 0.412 µM was 75%.

Take `COc1ccc(-c2ccc3c(c2)CC(C(=O)NO)CC3)cc1OC` (centres unmarked) [Compound I-109, 7-(3,4-dimethoxyphenyl)-N-hydroxy-1,2,3,4-tetrahydronaphthalene-2-carboxamide]: the inhibition at 0.412 µM worked out at 82%. With `O=C(NO)C1CCc2ccc(-c3cccc(-c4ccccc4)c3)cc2C1` (centres unmarked) [Compound I-110, 7-biphenyl-3-yl-N-hydroxy-1,2,3,4-tetrahydronaphthalene-2-carboxamide], the inhibition at 0.412 µM was 83%.

Take `Cc1ccc(C)c(-c2ccc3c(c2)CC(C(=O)NO)CC3)c1` (centres unmarked) [Compound I-111, 7-(2,5-dimethylphenyl)-N-hydroxy-1,2,3,4-tetrahydronaphthalene-2-carboxamide]: the inhibition at 0.412 µM worked out at 74%. In the case of `O=C(NO)C1CCc2ccc(-c3ccc(C(F)(F)F)cc3)cc2C1` (centres unmarked) [Compound I-112, N-hydroxy-7-[4-(trifluoromethyl)phenyl]-1,2,3,4-tetrahydronaphthalene-2-carboxamide] it was 58%; in that of `O=C(NO)C1CCc2ccc(-c3ccc(F)c(C(=O)N4CCCC4)c3)cc2C1` (centres unmarked) [Compound I-113, 7-[4-fluoro-3-(pyrrolidin-1-ylcarbonyl)phenyl]-N-hydroxy-1,2,3,4-tetrahydronaphthalene-2-carboxamide], 89%; in that of `COc1ccc2cc(-c3ccc4c(c3)CC(C(=O)NO)CC4)ccc2c1` (centres unmarked) [Compound I-114, N-hydroxy-6′-methoxy-5,6,7,8-tetrahydro-2,2′-binaphthalene-7-carboxamide], 76%.

`CN(C)C(=O)c1cc(-c2ccc3c(c2)CC(C(=O)NO)CC3)ccc1Cl` (centres unmarked) [Compound I-115, 7-{4-chloro-3-[(dimethylamino)carbonyl]phenyl}-N-hydroxy-1,2,3,4-tetrahydronaphthalene-2-carboxamide]: the inhibition at 0.412 µM came to 83%. `CC(C)Oc1ncccc1-c1ccc2c(c1)CC(C(=O)NO)CC2` (centres unmarked) [Compound I-116, N-hydroxy-7-(2-isopropoxypyridin-3-yl)-1,2,3,4-tetrahydronaphthalene-2-carboxamide]: the inhibition at 0.412 µM turned out to be 82%.

On to `O=C(NO)C1CCc2ccc(-c3ccc(S(=O)(=O)N4CCOCC4)cc3)cc2C1` (centres unmarked) [Compound I-117, N-hydroxy-7-[4-(morpholin-4-ylsulfonyl)phenyl]-1,2,3,4-tetrahydronaphthalene-2-carboxamide], for which the inhibition at 0.412 µM came out at 74%.

Take `O=C(NO)C1CCc2ccc(-c3ccc(C(=O)N4CCCC4)c(F)c3)cc2C1` (centres unmarked) [Compound I-118, 7-[3-fluoro-4-(pyrrolidin-1-ylcarbonyl)phenyl]-N-hydroxy-1,2,3,4-tetrahydronaphthalene-2-carboxamide]: the inhibition at 0.412 µM came out at 77%.

In the case of `O=C(NO)C1CCc2ccc(-c3ccc(F)c(Cl)c3)cc2C1` (centres unmarked) [Compound I-119, 7-(3-chloro-4-fluorophenyl)-N-hydroxy-1,2,3,4-tetrahydronaphthalene-2-carboxamide], the inhibition at 0.412 µM came out at 69%. As to `CC(C)(C#N)c1ccc(-c2ccc3c(c2)CC(C(=O)NO)CC3)cc1` (centres unmarked) [Compound I-120, 7-[4-(1-cyano-1-methylethyl)phenyl]-N-hydroxy-1,2,3,4-tetrahydronaphthalene-2-carboxamide], the inhibition at 0.412 µM was 55%.
